According to patent publication US20140242707A1, “Compositions and Methods for Diagnosing Hypercoagulability and Hypocoagulability” (Philadelphia Health & Education Corporation d/b/a Drexel …, priority 2011, published 2014):

Assays:
horse plasma [1] = assay: Thrombelastography of horse plasma, coagulation study (no tPA); format: biochemical; parameters: increase in TTG vs control / decrease in MRTG vs control / decrease in TTG vs control / decrease in MRTG vs control sample / decrease in TTG vs control sample / increase in MRTG vs control sample / increase in TTG vs control sample: concentration or dose not given beside the values; conditions: for MRTG / TMRTG / TTG / MA / R / α: PHA 10 mM, CORM-2 100 μM
Method: (§1) Blood was collected directly into plastic tubes containing 0.105 M sodium citrate (9:1, v/v) from the jugular vein of ten clinically normal grade and American Quarter Horse mares between 400 and 600 kg. Three additional horses to be subsequently described with acute gastrointestinal disease had blood samples similarly collected. The mares were group-housed in corrals. Plasma was obtained by centrifugation of citrated whole blood at 3000×g for 15 minutes and immediately frozen at −80° C. Plasma was subsequently shipped on dry ice and stored at −80° C. until thrombelastographic analysis.
The final volume for all subsequently described plasma sample mixtures was 359.6 μl. Sample composition for this series of experiments consisted of 326 μl of plasma; 10 μl of tissue factor reagent (0.1% final concentration in dH2O; Diagnostica Stago S.A.S., Asnieres sur Seine, France); 3.6 μl of dH2O, or 3.6 μl dH2O containing the heme-binding reductant phenylhydroxylamine (PHA, 10 mM final concentration, Sigma-Aldrich, Saint Louis, Mo., USA), or 3.6 μl of dimethyl sulfoxide with CORM-2 (100 μM final concentration; Sigma-Aldrich, Saint Louis, Mo., USA); and 20 μl of 200 mM CaCl2. As previously described in human plasma (McMichael et al., 2011, Blood Coagul Fibrinolysis, 22: 424-430), this diagnostic panel is designed to determine hemostatic kinetic changes following of formation of carboxyhemefibrinogen (Fe^+2 state) after exposure to CO released from CORM-2 and to determine the effects of formation of methemefibrinogen (Fe^+3 state) after exposure to PHA. The relative change from baseline kinetics caused by exposure to CORM-2 and PHA allow determination of the balance between oxy/carboxy/methemefibrinogen concentrations in human plasma (McMichael et al., 2011, Blood Coagul Fibrinolysis, 22: 424-430).
(§2) Plasma sample mixtures were placed in a disposable cup in a computer-controlled Thrombelastograph® hemostasis system (Model 5000, Haemoscope Corp., Niles, Ill., USA), with addition of CaCl2 as the last step to initiate clotting. Data were collected at 37° C. for 15 min in the first series of experiments involving coagulation alone, whereas in the experiments involving fibrinolysis data were collected until clot lysis time was observed. Elastic modulus-based parameters previously described were determined (Nielsen et al., 2009, Blood Coagul Fibrinolysis, 20: 377-380; Nielsen et al., 2009, Blood Coagul Fibrinolysis, 20: 448-455). The nomenclature used to describe these phenomena is as follows:
(§3) Time to maximum rate of thrombus generation (TMRTG): This is the time interval (min) observed prior to maximum speed of clot growth.
(§4) Maximum rate of thrombus generation (MRTG): This is the maximum velocity of clot growth observed (dynes/cm^2/sec).
(§5) Total Thrombus Generation (TTG): This is the total area under the velocity curve during clot growth (dynes/cm^2), representing the amount of clot strength generated during clot growth.
(§6) Thrombelastographic data are presented as mean±SD or as individual animal parameter values as appropriate. The effects of addition of CORM-2 and PHA on coagulation and fibrinolytic kinetic parameters were analyzed with one way repeated measures analysis of variance, utilizing Holm-Sidak post hoc test (SigmaStat 3.1, Systat Software, Inc., San Jose, Calif., USA) as appropriate. A P value of <0.05 was considered significant.

horse plasma [2] = assay: Thrombelastography of horse plasma, coagulation and fibrinolysis study (with tPA); format: biochemical; conditions: for % TTG Loss / MRL / MRTG / TMRL / TMRTG / TTG / CGT / CLS / CLT: CORM-2 100 μM
Method: as §1
In the second series of experiments assessing both coagulation and fibrinolysis, sample composition consisted of 316 μl of plasma; 10 μl of tissue factor reagent (0.1% final concentration), 10 μl of tissue type plasminogen activator (tPA, 580 Genentech, Inc., San Francisco, Calif., USA; 300 IU/ml final concentration); 3.6 μl of dH2O, or 3.6 μl dH2O containing PHA (10 mM final concentration), or 3.6 μl of CORM-2 (100 μM final concentration) and 20 μl of 200 mM CaCl2. The effects of converting heme groups to either a carboxyheme or metheme in horse plasma during clot growth and fibrinolysis were assessed as subsequently described.
as §2, §3, §4, §5
Time to maximum rate of lysis (TMRL): This is the time interval (min) measured from the time of maximum strength to the time when the velocity of clot disintegration is maximal.
Maximum Rate of Lysis (MRL): This is the maximum velocity of clot disintegration observed (-dynes/cm^2/sec).
Clot growth time (CGT): This is the time from clot amplitude of 2 mm [102 dynes/cm^2] until maximum strength is achieved, in min.
Clot lifespan (CLS): This is the sum of CGT and CLT.
as §6

[3] = horse with lethal disease, no tPA
[4] = horse with lethal enteritis, no tPA
[5] = horse with mild disease, no tPA
[6] = horse with mild enteritis, no tPA
[7] = horse with moderate disease, no tPA
[8] = horse with moderate enteritis, no tPA
[9] = horse with lethal enteritis, tPA
[10] = horse with mild disease, tPA, PHA 10 mM
[11] = horse with moderate disease, tPA, PHA 10 mM
[12] = horse with moderate enteritis, tPA
[13] = normal horses, tPA 300 IU/ml, PHA 10 mM

Which results are given for `[C-]#[O+].[C-]#[O+].[C-]#[O+].[C-]#[O+].[C-]#[O+].[C-]#[O+].[Cl][Ru][Cl].[Cl][Ru][Cl]` [CORM-2, tricarbonyldichlororuthenium (II) dimer]?
MRTG (horse plasma [1]; [3]): 5.0 dynes/cm^2/sec; TMRTG (horse plasma [1]; [3]): 3.7 min; TTG (horse plasma [1]; [3]): 126 dynes/cm^2; increase in MRTG vs control sample (horse plasma [1]; [4]): 67%; increase in TTG vs control sample (horse plasma [1]; [4]): 97%; MRTG (horse plasma [1]; [5]): 10.2 dynes/cm^2/sec; TMRTG (horse plasma [1]; [5]): 2.9 min; TTG (horse plasma [1]; [5]): 308 dynes/cm^2; increase in MRTG vs control sample (horse plasma [1]; [6]): 16%; increase in TTG vs control sample (horse plasma [1]; [6]): 25%; MRTG (horse plasma [1]; [7]): 9.1 dynes/cm^2/sec; TMRTG (horse plasma [1]; [7]): 2.4 min; TTG (horse plasma [1]; [7]): 238 dynes/cm^2; increase in MRTG vs control sample (horse plasma [1]; [8]): 28%; increase in TTG vs control sample (horse plasma [1]; [8]): 47%; increase in TTG vs control (horse plasma [1]; normal horses, no tPA): 9%; MA (horse plasma [1]; normal horses): 40.4 ± 3.4; MRTG (horse plasma [1]; normal horses): 13.0 ± 2.9 dynes/cm^2/sec; R (horse plasma [1]; normal horses): 2.0 ± 0.4; TMRTG (horse plasma [1]; normal horses): 2.8 ± 0.5 min; TTG (horse plasma [1]; normal horses): 342 ± 48 dynes/cm^2; α (horse plasma [1]; normal horses): 80.2 ± 2.1; % TTG Loss (horse plasma [2]; horse with lethal disease, tPA): 67.4%; MRL (horse plasma [2]; horse with lethal disease, tPA): 0.1 -dynes/cm^2/sec; MRTG (horse plasma [2]; horse with lethal disease, tPA): 2.8 dynes/cm^2/sec; TMRL (horse plasma [2]; horse with lethal disease, tPA): 65.2 min; TMRTG (horse plasma [2]; horse with lethal disease, tPA): 4.1 min; TTG (horse plasma [2]; horse with lethal disease, tPA): 92 dynes/cm^2; effect on MRL vs control sample (horse plasma [2]; [9]): did not affect; increase in MRTG vs control sample (horse plasma [2]; [9]): 12%; increase in TMRL vs control sample (horse plasma [2]; [9]): 8 fold; increase in TTG vs control sample (horse plasma [2]; [9]): 73%; % TTG Loss (horse plasma [2]; [10]): 50.7%; MRL (horse plasma [2]; [10]): 0.2 -dynes/cm^2/sec; MRTG (horse plasma [2]; [10]): 6.8 dynes/cm^2/sec; TMRL (horse plasma [2]; [10]): 122.8 min; TMRTG (horse plasma [2]; [10]): 3.2 min; TTG (horse plasma [2]; [10]): 274 dynes/cm^2; decrease in MRL vs control sample (horse plasma [2]; horse with mild enteritis, tPA): 88%; decrease in MRTG vs control sample (horse plasma [2]; horse with mild enteritis, tPA): 3%; increase in TMRL vs control sample (horse plasma [2]; horse with mild enteritis, tPA): 46 fold; increase in TTG vs control sample (horse plasma [2]; horse with mild enteritis, tPA): 77%; % TTG Loss (horse plasma [2]; [11]): 25.8%; MRL (horse plasma [2]; [11]): 0.4 -dynes/cm^2/sec; MRTG (horse plasma [2]; [11]): 7.2 dynes/cm^2/sec; TMRL (horse plasma [2]; [11]): 62.9 min; TMRTG (horse plasma [2]; [11]): 2.5 min; TTG (horse plasma [2]; [11]): 198 dynes/cm^2; decrease in MRL vs control sample (horse plasma [2]; [12]): 83%; increase in MRTG vs control sample (horse plasma [2]; [12]): 38%; increase in TMRL vs control sample (horse plasma [2]; [12]): 55 fold; increase in TTG vs control sample (horse plasma [2]; [12]): 160%; decrease in CGT vs control (horse plasma [2]; normal horses, tPA): 26%; decrease in CLS (clot lifespan) vs control (horse plasma [2]; normal horses, tPA): 77%; decrease in CLT vs control (horse plasma [2]; normal horses, tPA): 83%; decrease in MRL vs control (horse plasma [2]; normal horses, tPA): 27%; increase (prolongation) in TMRL vs control (horse plasma [2]; normal horses, tPA): 113%; increase in CGT vs control (horse plasma [2]; normal horses, tPA): 106%; increase in CLS vs control (horse plasma [2]; normal horses, tPA): 154%; increase in CLT vs control (horse plasma [2]; normal horses, tPA): 160%; increase in TTG vs control (horse plasma [2]; normal horses, tPA): 35%; CGT (horse plasma [2]; [13]): 6.4 ± 1.7 min; CLS (horse plasma [2]; [13]): 77.1 ± 23.8; CLT (horse plasma [2]; [13]): 70.6 ± 23.0 min; MRL (horse plasma [2]; [13]): 1.1 ± 0.5 -dynes/cm^2/sec; MRTG (horse plasma [2]; [13]): 13.2 ± 3.4 dynes/cm^2/sec; TMRL (horse plasma [2]; [13]): 26.2 ± 17.3 min; TMRTG (horse plasma [2]; [13]): 2.7 ± 0.4 min; TTG (horse plasma [2]; [13]): 312 ± 70 dynes/cm^2

Which results are given for `ONc1ccccc1` [PHA, phenylhydroxylamine]?
MRTG (horse plasma [1]; [3]): 0.1 dynes/cm^2/sec; TMRTG (horse plasma [1]; [3]): 8.2 min; TTG (horse plasma [1]; [3]): 2 dynes/cm^2; effect on coagulation (horse plasma [1]; [4]): essentially extinguished coagulation; MRTG (horse plasma [1]; [5]): 4.8 dynes/cm^2/sec; TMRTG (horse plasma [1]; [5]): 3.9 min; TTG (horse plasma [1]; [5]): 177 dynes/cm^2; decrease in MRTG vs control sample (horse plasma [1]; [6]): 45%; decrease in TTG vs control sample (horse plasma [1]; [6]): 28%; MRTG (horse plasma [1]; [7]): 3.9 dynes/cm^2/sec; TMRTG (horse plasma [1]; [7]): 3.5 min; TTG (horse plasma [1]; [7]): 126 dynes/cm^2; decrease in MRTG vs control sample (horse plasma [1]; [8]): 45%; decrease in TTG vs control sample (horse plasma [1]; [8]): 22%; decrease in MRTG vs control (horse plasma [1]; normal horses, no tPA): 54%; decrease in TTG vs control (horse plasma [1]; normal horses, no tPA): 47%; MA (horse plasma [1]; normal horses): 24.6 ± 2.7; MRTG (horse plasma [1]; normal horses): 6.2 ± 1.7 dynes/cm^2/sec; R (horse plasma [1]; normal horses): 2.4 ± 0.4; TMRTG (horse plasma [1]; normal horses): 3.4 ± 0.6 min; TTG (horse plasma [1]; normal horses): 166 ± 23 dynes/cm^2; α (horse plasma [1]; normal horses): 71.7 ± 3.6; % TTG Loss (horse plasma [2]; [10]): 100%; MRL (horse plasma [2]; [10]): 2.6 -dynes/cm^2/sec; MRTG (horse plasma [2]; [10]): 4.0 dynes/cm^2/sec; TMRL (horse plasma [2]; [10]): 2.4 min; TMRTG (horse plasma [2]; [10]): 3.4 min; TTG (horse plasma [2]; [10]): 100 dynes/cm^2; decrease in MRTG vs control sample (horse plasma [2]; horse with mild enteritis, tPA): 42%; decrease in TTG vs control sample (horse plasma [2]; horse with mild enteritis, tPA): 28%; difference in TMRL between control and exposed sample (horse plasma [2]; horse with mild enteritis, tPA): 8%; increase in MRL vs control sample (horse plasma [2]; horse with mild enteritis, tPA): 53%; % TTG Loss (horse plasma [2]; [11]): 100%; MRL (horse plasma [2]; [11]): 2.3 -dynes/cm^2/sec; MRTG (horse plasma [2]; [11]): 4.5 dynes/cm^2/sec; TMRL (horse plasma [2]; [11]): 2.8 min; TMRTG (horse plasma [2]; [11]): 2.8 min; TTG (horse plasma [2]; [11]): 94 dynes/cm^2; change in MRL vs control sample (horse plasma [2]; [12]): essentially no change; decrease in MRTG vs control sample (horse plasma [2]; [12]): 13%; increase in TMRL vs control sample (horse plasma [2]; [12]): 64%; increase in TTG vs control sample (horse plasma [2]; [12]): 23%; decrease in CLS (clot lifespan) vs control (horse plasma [2]; normal horses, tPA): 77%; decrease in MRTG vs control (horse plasma [2]; normal horses, tPA): 55%; decrease in TMRL vs control (horse plasma [2]; normal horses, tPA): 84%; increase in MRL vs control (horse plasma [2]; normal horses, tPA): 133%; CGT (horse plasma [2]; [13]): 2.3 ± 0.5 min; CLS (horse plasma [2]; [13]): 6.9 ± 1.4; CLT (horse plasma [2]; [13]): 4.6 ± 1.3 min; MRL (horse plasma [2]; [13]): 3.5 ± 0.8 -dynes/cm^2/sec; MRTG (horse plasma [2]; [13]): 5.6 ± 1.3 dynes/cm^2/sec; TMRL (horse plasma [2]; [13]): 2.0 ± 0.2 min; TMRTG (horse plasma [2]; [13]): 3.2 ± 0.6 min; TTG (horse plasma [2]; [13]): 118 ± 26 dynes/cm^2
